From patent publication US12496285B2, “Compositions and methods using at least one glycine or derivative thereof, at least one N-acetylcysteine or derivative thereof, and at least one nicotinamide riboside or NAD+ precursor” (SOCIETE DES PRODUITS NESTLE S.A., priority 2018, dated 2025)

System: mitochondrial respiration
Experiment: High-resolution respirometry of isolated muscle mitochondria from adult zebrafish after menadione-induced acute oxidative stress
Type: in vivo
Conditions: 3 uM menadione 2 h then 2 h treatment, low doses: NAC 100 uM + glycine 100 uM (GlyNAC) or NR 50 uM, single treatments
Method: FIG. 1. Effect of the combination of NAC, glycine and NR on the mitochondrial respiration. High-resolution respirometry of isolated mitochondria from muscle of adult zebrafish (N=5-6/condition). Acute oxidative stress was induced with a 2 h-treatment with menadione (Men). Rescue of the respiration was assessed with a treatment of 2 h with low doses of […] 100 uM, glycine 100 uM) and low dose of NR (50 uM). Data of respiration measurements are shown in 1A. Theoretical additive effect (Δ[…]) has been calculated as the sum of the mean of […] and NR and have been compared to the synergistic effect (Δ[…]). […] After BCA quantification of protein concentration, 150 ug of crude extract were used for high-resolution respirometry quantification. […] Respiration of isolated mitochondria was determined using substrate-uncoupler-inhibitor titration (SUIT) protocols (Pesta and […], 2012) with modifications. […] CI respiration was calculated as the difference between total respiration (CI+CII) and the addition of CI inhibitor rotenone (0.5 uM); CII respiration was calculated as the difference between inhibited CI respiration and the addition of CII inhibitor malonic acid (5 mM). Total respiration (CI+CII, Tot resp) was assessed as the difference of the respiration in presence of all substrates and the total inhibition of CI and CII. All numerical data are expressed as mean±SEM and reported as histograms. […]

## NC(=O)c1ccc[n+]([C@@H]2O[C@H](CO)[C@@H](O)[C@H]2O)c1 [NR, nicotinamide riboside]
  effect on mitochondrial respiration when used alone: do not show any significant effect when used alone
